Data taken from patent US20140288061A1, “INSECTICIDE COMPOSITIONS AND PROCESS” (priority 2004, published 2014).

The compounds below were run on German cockroaches. Settings: 2 μl per insect; evaluated after 24 hours; alone or with 10% solution (ETCH) of Tomadol 23-1.
Method: Dose-response evaluations were performed on 1-4 week old adults SJC Strain (S.C. Johnson & Son, Racine, Wis.) German cockroaches, Blattella germanica, L. Insects were individually transferred using a 7″ (18 cm) […] forceps to 100×20 mm polystyrene Petri dishes. The inside edge of the dishes was lightly coated with a layer of (1:3) mineral oil+petroleum jelly to minimize insect escape. Approximately 10 cockroaches were transferred to each dish and then anesthetized with a 15-25 second exposure to CO2. Anesthetized cockroaches were positioned with their ventral side up in the bottom of the Petri dish. A 2 μl drop of test solution was applied to the area between the meso- and methathoracic legs using a Rainen L-10 10 μl pipette. Control cockroaches were treated with a 2 μl drop of the solvent, 100% ethyl alcohol.
Structure—activity tests used to calculate LT50 values were scored approximately every 30 minutes for the first two hours following treatment followed by approximate hourly readings to hour 8 with a final reading at 24 hours. Cockroaches were scored as either alive (dorsal side up, active movement when abdomen prodded) or moribund/dead (dorsal side up and no movement when abdomen prodded or ventral side up and insect unable to right itself).

Point of comparison: `CN/C(=N\[N+](=O)[O-])NCc1cnc(Cl)s1` [clothianidin], “LC50 (%) [95% CI]” value 0.0020%. Against it:
- CNC(=O)Oc1ccccc1OC(C)C [propoxur] — higher, 0.0101%
- CCOCn1c(-c2ccc(Cl)cc2)c(C#N)c(Br)c1C(F)(F)F [chlorfenapyr] — higher, 0.4062%
- CN1COCN(Cc2cnc(Cl)s2)/C1=N\[N+](=O)[O-] [thiamethoxam] — higher, 0.0038%
- CC1(C)C(C=C(Cl)Cl)C1C(=O)OC(C#N)c1ccc(F)c(Oc2ccccc2)c1 (centres unmarked) [cyfluthrin] — higher, 0.0050%
- O=[N+]([O-])NC1=NCCN1Cc1ccc(Cl)nc1 [imidacloprid] — higher, 0.0219%
- COP(=O)(NC(C)=O)SC (centres unmarked) [acephate] — higher, 0.0051%

Same assay, conditions: in words

For `COP(=O)(NC(C)=O)SC` (centres unmarked) [acephate], the “synergy of insecticidal activity by Tomadol 23-1 (reduced the LC50)” value was “did not synergize”.
